{"source": "patent US10770169B2", "about": "“Method of providing a treatment to a subject based on a dynamic pathway map” (THE REGENTS OF THE UNIVERSITY OF CALIFORNIA, priority 2010, dated 2020)", "system": "panel of 55 breast cancer cell lines", "test": "Cell growth inhibition assay (Cell Titer Glo, 72 h, 9 doses; GI50, TGI, LC50)", "assay_type": "cell-based, human", "note": "Like-named read-outs stand apart in the source and are kept apart here.", "data": [{"smiles": "COc1cc(Nc2c(C#N)cnc3cc(OCCCN4CCN(C)CC4)c(OC)cc23)c(Cl)cc1Cl", "note": "[Bosutinib]", "values": [{"measurement": "GI50", "setting": "Homo sapiens, 600MPE cell line, censored GI50 values, read-out: GI50 (converted)", "result": 8910, "unit": "nM"}, {"measurement": "GI50", "setting": "Homo sapiens, AU565, AU565 cell line, censored GI50 values, read-out: GI50 (converted)", "result": 2140, "unit": "nM"}, {"measurement": "GI50", "setting": "Homo sapiens, AU565, cell line AU565, read-out: GI50 (converted)", "result": 2140, "unit": "nM"}, {"measurement": "GI50", "setting": "Homo sapiens, BT-20, BT20 cell line, censored GI50 values, read-out: GI50 (converted)", "result": 1380, "unit": "nM"}, {"measurement": "GI50", "setting": "Homo sapiens, BT-20, cell line BT20, read-out: GI50 (converted)", "result": 1380, "unit": "nM"}, {"measurement": "GI50", "setting": "Homo sapiens, BT-474, BT474 cell line, censored GI50 values, read-out: GI50 (converted)", "result": 724, "unit": "nM"}, {"measurement": "GI50", "setting": "Homo sapiens, BT-474, cell line BT474, read-out: GI50 (converted)", "result": 724, "unit": "nM"}, {"measurement": "GI50", "setting": "Homo sapiens, BT-483, BT483 cell line, censored GI50 values, read-out: GI50 (converted)", "result": 3550, "unit": "nM"}, {"measurement": "GI50", "setting": "Homo sapiens, BT-483, cell line BT483, read-out: GI50 (converted)", "result": 3550, "unit": "nM"}, {"measurement": "GI50", "setting": "Homo sapiens, CAMA-1, CAMA1 cell line, censored GI50 values, read-out: GI50 (converted)", "result": 3240, "unit": "nM"}, {"measurement": "GI50", "setting": "Homo sapiens, CAMA-1, cell line CAMA1, read-out: GI50 (converted)", "result": 3240, "unit": "nM"}, {"measurement": "GI50", "setting": "Homo sapiens, HCC38, HCC38 cell line, censored GI50 values, read-out: GI50 (converted)", "result": 891, "unit": "nM"}, {"measurement": "GI50", "setting": "Homo sapiens, HCC38, cell line HCC38, read-out: GI50 (converted)", "result": 891, "unit": "nM"}, {"measurement": "GI50", "setting": "Homo sapiens, HCC70, HCC70 cell line, censored GI50 values, read-out: GI50 (converted)", "result": 891, "unit": "nM"}, {"measurement": "GI50", "setting": "Homo sapiens, HCC70, cell line HCC70, read-out: GI50 (converted)", "result": 891, "unit": "nM"}, {"measurement": "GI50", "setting": "Homo sapiens, HCC1143, HCC1143 cell line, censored GI50 values, read-out: GI50 (converted)", "result": 4900, "unit": "nM"}, {"measurement": "GI50", "setting": "Homo sapiens, HCC1143, cell line HCC1143, read-out: GI50 (converted)", "result": 4900, "unit": "nM"}, {"measurement": "GI50", "setting": "Homo sapiens, HCC1187, HCC1187 cell line, censored GI50 values, read-out: GI50 (converted)", "result": 3160, "unit": "nM"}, {"measurement": "GI50", "setting": "Homo sapiens, HCC1187, cell line HCC1187, read-out: GI50 (converted)", "result": 3160, "unit": "nM"}, {"measurement": "GI50", "setting": "Homo sapiens, HCC1419, HCC1419 cell line, censored GI50 values, read-out: GI50 (converted)", "result": 759, "unit": "nM"}, {"measurement": "GI50", "setting": "Homo sapiens, HCC1419, cell line HCC1419, read-out: GI50 (converted)", "result": 759, "unit": "nM"}, {"measurement": "GI50", "setting": "Homo sapiens, HCC1428, HCC1428 cell line, censored GI50 values, read-out: GI50 (converted)", "result": 3890, "unit": "nM"}, {"measurement": "GI50", "setting": "Homo sapiens, HCC1428, cell line HCC1428, read-out: GI50 (converted)", "result": 3890, "unit": "nM"}, {"measurement": "GI50", "setting": "Homo sapiens, HCC1500, HCC1500 cell line, censored GI50 values, read-out: GI50 (converted)", "result": 2570, "unit": "nM"}, {"measurement": "GI50", "setting": "Homo sapiens, HCC1500, cell line HCC1500, read-out: GI50 (converted)", "result": 2570, "unit": "nM"}, {"measurement": "GI50", "setting": "Homo sapiens, HCC1806, HCC1806 cell line, censored GI50 values, read-out: GI50 (converted)", "result": 2090, "unit": "nM"}, {"measurement": "GI50", "setting": "Homo sapiens, HCC1806, cell line HCC1806, read-out: GI50 (converted)", "result": 2090, "unit": "nM"}, {"measurement": "GI50", "setting": "Homo sapiens, HCC1937, HCC1937 cell line, censored GI50 values, read-out: GI50 (converted)", "result": 1450, "unit": "nM"}, {"measurement": "GI50", "setting": "Homo sapiens, HCC1937, cell line HCC1937, read-out: GI50 (converted)", "result": 1450, "unit": "nM"}, {"measurement": "GI50", "setting": "Homo sapiens, HCC1954, HCC1954 cell line, censored GI50 values, read-out: GI50 (converted)", "result": 1170, "unit": "nM"}, {"measurement": "GI50", "setting": "Homo sapiens, HCC1954, cell line HCC1954, read-out: GI50 (converted)", "result": 1170, "unit": "nM"}, {"measurement": "GI50", "setting": "Homo sapiens, HCC2185 cell line, censored GI50 values, read-out: GI50 (converted)", "result": 5010, "unit": "nM"}, {"measurement": "GI50", "setting": "Homo sapiens, HCC3153 cell line, censored GI50 values, read-out: GI50 (converted)", "result": 3800, "unit": "nM"}, {"measurement": "GI50", "setting": "Homo sapiens, LY2 cell line, censored GI50 values, read-out: GI50 (converted)", "result": 2450, "unit": "nM"}, {"measurement": "GI50", "setting": "Homo sapiens, MCF7, MCF7 cell line, censored GI50 values, read-out: GI50 (converted)", "result": 2570, "unit": "nM"}, {"measurement": "GI50", "setting": "Homo sapiens, MCF7, cell line MCF7, read-out: GI50 (converted)", "result": 2570, "unit": "nM"}, {"measurement": "GI50", "setting": "Homo sapiens, MDA-MB-175-VII, MDAMB175VII cell line, censored GI50 values, read-out: GI50 (converted)", "result": 1070, "unit": "nM"}, {"measurement": "GI50", "setting": "Homo sapiens, MDA-MB-361, MDAMB361 cell line, censored GI50 values, read-out: GI50 (converted)", "result": 1510, "unit": "nM"}, {"measurement": "GI50", "setting": "Homo sapiens, MDA-MB-436, MDAMB436 cell line, censored GI50 values, read-out: GI50 (converted)", "result": 5010, "unit": "nM"}, {"measurement": "GI50", "setting": "Homo sapiens, MDA-MB-453, MDAMB453 cell line, censored GI50 values, read-out: GI50 (converted)", "result": 2340, "unit": "nM"}, {"measurement": "GI50", "setting": "Homo sapiens, MDA-MB-468, MDAMB468 cell line, censored GI50 values, read-out: GI50 (converted)", "result": 2570, "unit": "nM"}, {"measurement": "GI50", "setting": "Homo sapiens, SK-BR-3, SKBR3 cell line, censored GI50 values, read-out: GI50 (converted)", "result": 3890, "unit": "nM"}, {"measurement": "GI50", "setting": "Homo sapiens, SUM52PE, SUM52PE cell line, censored GI50 values, read-out: GI50 (converted)", "result": 1450, "unit": "nM"}, {"measurement": "GI50", "setting": "Homo sapiens, SUM149PT, SUM149PT cell line, censored GI50 values, read-out: GI50 (converted)", "result": 759, "unit": "nM"}, {"measurement": "GI50", "setting": "Homo sapiens, SUM1315MO2, SUM1315MO2 cell line, censored GI50 values, read-out: GI50 (converted)", "result": 871, "unit": "nM"}, {"measurement": "GI50", "setting": "Homo sapiens, SUM-159-PT, SUM159PT cell line, censored GI50 values, read-out: GI50 (converted)", "result": 1380, "unit": "nM"}, {"measurement": "GI50", "setting": "Homo sapiens, T47D, T47D cell line, censored GI50 values, read-out: GI50 (converted)", "result": 5620, "unit": "nM"}, {"measurement": "GI50", "setting": "Homo sapiens, UACC-812, UACC812 cell line, censored GI50 values, read-out: GI50 (converted)", "result": 2750, "unit": "nM"}, {"measurement": "GI50", "setting": "Homo sapiens, ZR-75-1, ZR751 cell line, censored GI50 values, read-out: GI50 (converted)", "result": 14100, "unit": "nM"}, {"measurement": "GI50", "setting": "Homo sapiens, ZR-75B, ZR75B cell line, censored GI50 values, read-out: GI50 (converted)", "result": 7080, "unit": "nM"}, {"measurement": "GI50", "setting": "Homo sapiens, cell line 600MPE, read-out: GI50 (converted)", "result": 8910, "unit": "nM"}, {"measurement": "GI50", "setting": "Homo sapiens, cell line HCC2185, read-out: GI50 (converted)", "result": 5010, "unit": "nM"}, {"measurement": "GI50", "setting": "Homo sapiens, cell line HCC3153, read-out: GI50 (converted)", "result": 3800, "unit": "nM"}, {"measurement": "GI50", "setting": "Homo sapiens, cell line LY2, read-out: GI50 (converted)", "result": 2450, "unit": "nM"}]}, {"smiles": "CCc1c2c(nc3ccc(OC(=O)N4CCC(N5CCCCC5)CC4)cc13)-c1cc3c(c(=O)n1C2)COC(=O)[C@]3(O)CC", "note": "[CPT-11]", "values": [{"measurement": "GI50", "setting": "CAMA1 cell line, censored GI50 values, value is the negative log10 of mol/L", "result": 4.84}, {"measurement": "GI50", "setting": "MDAMB157 cell line, censored GI50 values, value is the negative log10 of mol/L", "result": 4.80}, {"measurement": "GI50", "setting": "cell line CAMA1, value is the negative log10 of mol/L", "result": 4.84}, {"measurement": "GI50", "setting": "cell line MDAMB157, value is the negative log10 of mol/L", "result": 4.80}]}]}
